Tested on: LPA 18:2
Assay: Rat whole blood (plasma) LPA assay
Format: biochemical
Details: 2 h at 37° C., LPA 18:2 by LC-MS/MS
Description: Whole blood is collected from rats or mouse by exsanguinations on sodium heparin tube, then after centrifugation at 3000 rpm for 15 min at 4° C., plasma is stored at −80° C. Compounds are diluted in DMSO in concentration dependent manner then 0.5 μL are dispensed into 96-well plate placed in ice. Plasma is defrosted on ice then 49.5 μL of plasma are added into the well containing 0.5 μL of compound (1% DMSO final). Plates are covered with a lid in polypropylene and incubated at +37° C., 5% CO2, for 2 h under gentle shaking (except controls which are stored at −20° C.).
At the end of the incubation, controls are defrosted in ice and transferred in the incubated plates for LC-MS/MS analysis with a non GLP-validated method. For the analysis, plasma proteins from a 10 μL incubated plates are precipitated with an excess of methanol containing the internal standard, LPA 17:0. After centrifugation, the corresponding supernatant is injected on a C18 column. Analytes are eluted out of the column under isocratic conditions. An API5500 QTRAP mass spectrometer (ABSciex™) is used for the detection of LPA 18:2. No calibration curve is prepared for LPA 18:2, however relative quantities are evaluated based on the peak area.

| Structure (SMILES) | IC50 [nM] |
| --- | --- |
| CCc1nc2ccc(N3CCS(=O)(=O)CC3)cn2c1N(C)c1nc(-c2ccc(Cl)cc2)cs1 [Compound 213, 4-(2-ethyl-3-((4-(4-chlorophenyl)thiazol-2-yl)(methyl)amino)imidazo[1,2-a]pyridin-6-yl)-thiomorpholine-1,1-dioxide] | > 1000 |
| CCc1nc2ccc(C3CCN(CC(=O)N4CC(O)C4)CC3)cn2c1N(C)c1nc(-c2ccc(F)cc2)c(CO)s1 [Compound 156, 2-(4-(2-ethyl-3-((4-(4-fluorophenyl)-5-(hydroxymethyl)thiazol-2-yl)(methyl)amino)imidazo[1,2-a]pyridin-6-yl)piperidin-1-yl)-1-(3-hydroxyazetidin-1-yl)ethanone] | > 1000 |
| CCc1nc2ccc(C3CCN(S(=O)(=O)CCCN(C)C)CC3)cn2c1N(C)c1nc(-c2ccc(F)cc2)c(CO)s1 [Compound 149, (2-((6-(1-(3-(dimethylamino)propylsulfonyl)piperidin-4-yl)-2-ethylimidazo[1,2-a]pyridin-3-yl)(methyl)amino)-4-(4-fluorophenyl)thiazol-5-yl)] | > 1000 |
| CCc1nc2ccc(C3CCN(CC(=O)N4CC(CO)C4)CC3)cn2c1N(C)c1nc(-c2ccc(F)cc2)c(C#N)s1 [Compound 144, 2-((2-ethyl-6-(1-(2-(3-(hydroxymethyl)azetidin-1-yl)-2-oxoethyl)piperidin-4-yl)imidazo[1,2-a]pyridin-3-yl)(methyl)amino)-4-(4-fluorophenyl)thiazole-5-carbonitrile] | 0.01 to 100 |
| CCc1nc2ccc(C3=CCN(S(C)(=O)=O)CC3)cn2c1N(C)c1nc(-c2ccc(F)cc2)cs1 [Compound 66, N-(2-ethyl-6-(1-(methylsulfonyl)-1,2,3,6-tetrahydropyridin-4-yl)imidazo[1,2-a]pyridin-3-yl)-4-(4-fluorophenyl)-N-methylthiazol-2-amine] | > 1000 |
| CCc1nc2ccc(N3CCN(CC(=O)N(C)C)CC3)cn2c1N(C)c1nc(-c2ccc(F)cc2)c(C#N)s1 [Compound 140, 2-(4-(3-((5-cyano-4-(4-fluorophenyl)thiazol-2-yl)(methyl)amino)-2-ethylimidazo[1,2-a]pyridin-6-yl)piperazin-1-yl)-N,N-dimethylacetamide] | 0.01 to 100 |
| CCc1nc2ccc(N3CCN(S(C)(=O)=O)CC3)cn2c1N(C)c1nc(-c2ccc(Cl)cc2)ns1 [Compound 188, 3-(4-chlorophenyl)-N-(2-ethyl-6-(4-(methylsulfonyl)piperazin-1-yl)imidazo[1,2-a]pyridin-3-yl)-N-methyl-1,2,4-thiadiazol-5-amine] | > 1000 |
| CCc1nc2ccc(N3CCN(C(=O)C4CCN(C(C)=O)C4)CC3)cn2c1N(C)c1nc(-c2ccc(F)cc2)cs1 (stereo not drawn) [Compound 48, 1-{3-[4-(2-Ethyl-3-{[4-(4-fluoro-phenyl)-thiazol-2-yl]-methyl-amino}-imidazo[1,2-a]pyridin-6-yl)-piperazine-1-carbonyl]-pyrrolidin-1-yl}-ethanone] | > 1000 |
| CCc1nc2ccc(N3CCN(CC(=O)N4CC[C@@H](O)C4)CC3)cn2c1N(C)c1nc(-c2ccc(F)cc2)cs1 [Compound 26, (R)-2-(4-(2-ethyl-3-((4-(4-fluorophenyl)thiazol-2-yl)(methyl)amino)imidazo[1,2-a]pyridin-6-yl)piperazin-1-yl)-1-(3-hydroxypyrrolidin-1-yl)ethanone] | > 1000 |
| CCc1nc2ccc(N3CCN(S(C)(=O)=O)CC3)cn2c1N(C)c1nc(-c2ccc(F)cc2)cs1 [Compound 54, N-(2-ethyl-6-(4-(methylsulfonyl)piperazin-1-yl)imidazo[1,2-a]pyridin-3-yl)-4-(4-fluorophenyl)-N-methylthiazol-2-amine] | > 1000 |
| CCc1nc2cc(F)c(N3CCN(CC(=O)N4CC(O)C4)CC3)cn2c1N(C)c1nc(-c2ccc(F)cc2)c(C#N)s1 [Compound 18, 2-[(2-Ethyl-7-fluoro-6-{4-[2-(3-hydroxy-azetidin-1-yl)-2-oxo-ethyl]-piperazin-1-yl}-imidazo[1,2-a]pyridin-3-yl)-methyl-amino]-4-(4-fluoro-phenyl)-thiazole-5-carbonitrile] | 0.01 to 100 |
| CCc1nc2ccc(N3CCN(C(=O)CCCN(C)C)CC3)cn2c1N(C)c1nc(-c2ccc(F)cc2)cs1 [Compound 53, 4-(dimethylamino)-1-(4-(2-ethyl-3-((4-(4-fluorophenyl)thiazol-2-yl)(methyl)amino)imidazo[1,2-a]pyridin-6-yl)piperazin-1-yl)butan-1-one] | > 1000 |
| CCc1nc2ccc(C3CCN(CC(=O)N4CC[C@@H](O)C4)CC3)cn2c1N(C)c1nc(-c2ccc(F)cc2)c(C#N)s1 [Compound 142, (R)-2-((2-ethyl-6-(1-(2-(3-hydroxypyrrolidin-1-yl)-2-oxoethyl)piperidin-4-yl)imidazo[1,2-a]pyridin-3-yl)(methyl)amino)-4-(4-fluorophenyl)thiazole-5-carbonitrile] | 0.01 to 100 |
| CCc1nc2ccc(N3CCOC3=O)cn2c1N(C)c1nc(-c2ccc(Cl)cc2)cs1 [Compound 206, 3-(3-((4-(4-chlorophenyl)thiazol-2-yl)(methyl)amino)-2-ethylimidazo[1,2-a]pyridin-6-yl)oxazolidin-2-one] | > 1000 |
| CCc1nc2ccc(N3CCN(Cc4ncc[nH]4)CC3)cn2c1N(C)c1nc(-c2ccc(F)cc2)cs1 [Compound 226, N-(6-(4-((1H-imidazol-2-yl)methyl)piperazin-1-yl)-2-ethylimidazo[1,2-a]pyridin-3-yl)-4-(4-fluorophenyl)-N-methylthiazol-2-amine] | > 1000 |
| CN(c1nc(-c2ccc(F)cc2)c(CO)s1)c1c(CCC#N)nc2ccc(C3CCN(S(C)(=O)=O)CC3)cn12 [Compound 175, 3-(3-((4-(4-fluorophenyl)-5-(hydroxymethyl)thiazol-2-yl)(methyl)amino)-6-(1-(methylsulfonyl)piperidin-4-yl)imidazo[1,2-a]pyridin-2-yl)propanenitrile] | 0.01 to 100 |
| CN(C)C(=O)CN1CCC(c2ccc3nc(CCC#N)c(N(C)c4nc(-c5ccc(F)cc5)cs4)n3c2)CC1 [Compound 174, 2-(4-(2-(2-cyanoethyl)-3-((4-(4-fluorophenyl)thiazol-2-yl)(methyl)amino)imidazo[1,2-a]pyridin-6-yl)piperidin-1-yl)-N,N-dimethylacetamide] | 0.01 to 100 |
| CCc1nc2ccc(C3CCN(S(C)(=O)=O)CC3)cn2c1N(C)c1nc(-c2ccc(F)cc2C#N)cs1 [Compound 96, 2-(2-((2-ethyl-6-(1-(methylsulfonyl)piperidin-4-yl)imidazo[1,2-a]pyridin-3-yl)(methyl)amino)thiazol-4-yl)-5-fluorobenzonitrile] | 0.01 to 100 |
| CCc1nc2ccc(N3CCS(=O)(=O)CC3)cn2c1N(C)c1nc(-c2ccc(F)cc2)cs1 [Compound 182, 4-(2-ethyl-3-((4-(4-fluorophenyl)thiazol-2-yl)(methyl)amino)imidazo[1,2-a]pyridin-6-yl)-thiomorpholine 1,1-dioxide] | > 1000 |
| CCc1nc2ccc(N3CCN(CCO)CC3)cn2c1N(C)c1nc(-c2ccc(F)cc2)cs1 [Compound 180, 2-(4-(2-ethyl-3-((4-(4-fluorophenyl)thiazol-2-yl)(methyl)amino)imidazo[1,2-a]pyridin-6-yl)piperazin-1-yl)ethanol] | > 1000 |
| CCc1nc2ccc(N3CCN(C(=O)C4CCCN4)CC3)cn2c1N(C)c1nc(-c2ccc(F)cc2)cs1 (stereo not drawn) [Compound 46, (4-(2-ethyl-3-((4-(4-fluorophenyl)thiazol-2-yl)(methyl)amino)imidazo[1,2-a]pyridin-6-yl)piperazin-1-yl)(pyrrolidin-2-yl)methanone] | > 1000 |

From patent US11072611B2, “Compounds and pharmaceutical compositions thereof for the treatment of inflammatory disorders” (Galapagos NV, priority 2013, dated 2021)
